This is an account of results in US6649144B1, “Method for detecting and killing epithelial cancer cells” (Zila, Inc., priority 2001, dated 2003).

The subject of this experiment is carcinoma cells. In words: Uptake and retention of mitochondrial marking agents in living carcinoma cells. Format: cell-based. Particulars: 5 minutes incubation at 37° C., rinsed twice with 1% acetic acid, 2-butanol extraction, spectrophotometry. The procedure:
Different concentrations of the various cationic marking agents, at 100, 50, 10 and 1 μg/ml are prepared in RPMI medium complete with 20% fetal calf serum, 1 mM glutamine, hydrocortisone, insulin, transferrin, estradiol, selenium and growth hormone.
The carcinoma cells are incubated at 37° C. in tissue culture incubators with 5% CO2 and 95% relative humidity, for 5 minutes with each agent and concentration there and then rinsed twice using 2 minute incubations with 1% acetic acid. After incubation and rinsing, the cells are harvested, at 30 min., 1 hour, 2 hours, 4 hours and 8 hours. The cells are then extracted with 2-butanol and analyzed by spectrophotometry for quantitation of the marking agent.
The saturation concentration for toluidine blue O occurs at concentrations of 10 μg/ml and above. The saturation concentrations for the other marking agents are similarly determined. The remaining experiments are conducted with a concentration of 10 μg/ml for toluidine blue O and at the saturation concentrations for the other marking agents so-determined, unless stated otherwise.

Take `Cc1cc2nc3ccc(N(C)C)cc3[s+]c2cc1N.[Cl-]` [toluidine blue O]: the saturation concentration is not below 10 µg/mL.
